Measured values published in ChEMBL document CHEMBL3813606, “Synthesis and skin gene analysis of 4'-acetoxy-resveratrol (4AR), therapeutic potential for dermal applications” (Bioorg Med Chem Lett, 2016).

Tests used:
Zone of skin [1] = test: Upregulation of MT2A gene expression in human epidermal full thickness skin cultures at 1 % after 24 hrs by qPCR analysis relative to control; type: functional
Zone of skin [2] = test: Upregulation of PCNA gene expression in human epidermal full thickness skin cultures at 1 % after 24 hrs by qPCR analysis relative to control; type: functional
Zone of skin [3] = test: Upregulation of elastin gene expression in human epidermal full thickness skin cultures at 1 % after 24 hrs by real time PCR analysis relative to control; type: functional
Zone of skin [4] = test: Toxicity in human epidermal full thickness skin cultures assessed as intact and healthy stratum corneum at 1 % after 24 hrs by hematoxylin/eosin staining based assay
Zone of skin [5] = test: Upregulation of TGF gene expression in human epidermal full thickness skin cultures at 1 % after 24 hrs by qPCR analysis relative to control; type: functional
Zone of skin [6] = test: Upregulation of NGF gene expression in human epidermal full thickness skin cultures at 1 % after 24 hrs by qPCR analysis relative to control; type: functional
Zone of skin [7] = test: Upregulation of LOX gene expression in human epidermal full thickness skin cultures at 1 % after 24 hrs by qPCR analysis relative to control; type: functional
Zone of skin [8] = test: Upregulation of MT1H gene expression in human epidermal full thickness skin cultures at 1 % after 24 hrs by qPCR analysis relative to control; type: functional
Zone of skin [9] = test: Upregulation of type IV collagen alpha 2 gene expression in human epidermal full thickness skin cultures at 1 % after 24 hrs by real time PCR analysis relative to control; type: functional
Zone of skin [10] = test: Upregulation of TIMP 1 gene expression in human epidermal full thickness skin cultures at 1 % after 24 hrs by real time PCR analysis relative to control; type: functional
Zone of skin [11] = test: Upregulation of catalase gene expression in human epidermal full thickness skin cultures at 1 % after 24 hrs by qPCR analysis relative to control; type: functional
Zone of skin [12] = test: Upregulation of LAMB 1 gene expression in human epidermal full thickness skin cultures at 1 % after 24 hrs by qPCR analysis relative to control; type: functional
Zone of skin [13] = test: Upregulation of procollagen type III gene expression in human epidermal full thickness skin cultures at 1 % after 24 hrs by real time PCR analysis relative to control; type: functional
Zone of skin [14] = test: Upregulation of FBN 1 gene expression in human epidermal full thickness skin cultures at 1 % after 24 hrs by qPCR analysis relative to control; type: functional
Zone of skin [15] = test: Upregulation of TIMP 2 gene expression in human epidermal full thickness skin cultures at 1 % after 24 hrs by real time PCR analysis relative to control; type: functional
Zone of skin [16] = test: Upregulation of SIRT-1 gene expression in human epidermal full thickness skin cultures at 1 % after 24 hrs by real time PCR analysis relative to control; type: functional
Zone of skin [17] = test: Upregulation of SOD 2 gene expression in human epidermal full thickness skin cultures at 1 % after 24 hrs by qPCR analysis relative to control; type: functional
Zone of skin [18] = test: Upregulation of IGF 1 gene expression in human epidermal full thickness skin cultures at 1 % after 24 hrs by qPCR analysis relative to control; type: functional
Zone of skin [19] = test: Upregulation of type IV collagen alpha 1 gene expression in human epidermal full thickness skin cultures at 1 % after 24 hrs by real time PCR analysis relative to control; type: functional
NHDF = test: Upregulation of SIRT-1 gene expression in NHDF by real time RT-PCR analysis relative to control; type: functional, Homo sapiens
Zone of skin [20] = test: Toxicity in human epidermal full thickness skin cultures assessed as intact and healthy keratinocytes at 1 % after 24 hrs by hematoxylin/eosin staining based assay
Zone of skin [21] = test: Upregulation of SOD 1 gene expression in human epidermal full thickness skin cultures at 1 % after 24 hrs by qPCR analysis relative to control; type: functional
Zone of skin [22] = test: Toxicity in human epidermal full thickness skin cultures assessed as intact and healthy fibroblasts at 1 % after 24 hrs by hematoxylin/eosin staining based assay
Zone of skin [23] = test: Upregulation of HBEGF gene expression in human epidermal full thickness skin cultures at 1 % after 24 hrs by qPCR analysis relative to control; type: functional
[24] = Lipophilicity, log P of the compound; conditions: octanol/water

Structure (SMILES): CC(=O)Oc1ccc(/C=C/c2cc(O)cc(O)c2)cc1
- Activity (Zone of skin [1]): 340%
- Activity (Zone of skin [2]): 540%
- Activity (Zone of skin [3]): 280%
- Activity (Zone of skin [4]): Non-toxic
- Activity (Zone of skin [5]): 200%
- Activity (Zone of skin [6]): 672%
- Activity (Zone of skin [7]): 190%
- Activity (Zone of skin [8]): 6400%
- Activity (Zone of skin [9]): 180%
- Activity (Zone of skin [10]): 250%
- Activity (Zone of skin [11]): 160%
- Activity (Zone of skin [12]): 140%
- Activity (Zone of skin [13]): 220%
- Activity (Zone of skin [14]): 130%
- Activity (Zone of skin [15]): 130%
- Activity (Zone of skin [16]): 335%
- Activity (Zone of skin [17]): 170%
- Activity (Zone of skin [18]): 264%
- Activity (Zone of skin [19]): 170%
- fold change (FC) (NHDF): >3.3
- Activity (Zone of skin [20]): Non-toxic
- Activity (Zone of skin [21]): 160%
- Activity (Zone of skin [22]): Non-toxic
- Activity (Zone of skin [23]): 190%

Structure (SMILES): Oc1ccc(/C=C/c2cc(O)cc(O)c2)cc1 [RESVERATROL]
- logP [24]: 3.1
- Activity (Zone of skin [3]): 180%
- fold change (FC) (Zone of skin [16]): 1.8
